Results taken from EP3355943B1, “METHODS AND SYSTEMS FOR TREATING MEDICAL DEVICES AND FLUIDS” (Ethicon, Inc., priority 2015, dated 2017).
Like-named read-outs stand apart in the source and are kept apart here.

Experiments:
[1] = Effect of storage (dwell time) on efficacy of pre-mixed CaSt suspensions, sonicated or vortexed; assay type: biochemical
Method: Efficacy of pre-mixed CaSt suspensions (sonicated and vortexed) was tested, comparing efficacy of immediately prepared suspensions with suspensions having shelf life or dwell time of 90 min, 5 days, and 1 month prior to contact with endotoxin containing solutions.
10 mL SRW was then introduced to the sonicated CaSt mixture. It was then vortexed for 5 seconds to fully incorporate the sonicated CaSt. The mixture was then tested after 15 minutes of interaction to measure the percent decrease of endotoxin.
10 mL SRW was then introduced to the vortexed CaSt mixture. It was then vortexed for 5 seconds to fully incorporate the sonicated CaSt. The mixture was then tested after 15 minutes of interaction to measure the percent decrease of endotoxin.
These mixtures were then tested on the Charles River MCS at a dilution of 1:2000 after 15 minutes of interaction.
Testing of suspensions having shelf life or dwell time of 90 min, 5 days, and 1 month prior to contact with endotoxin containing solutions.
Test samples were prepared as described above, sonicated and vortexed, but were subjected to shelf life or dwell time of 90 min, 5 days, and 1 month prior to contact with endotoxin containing solution (SRW). After dwell time exposure, similarly to the immediate mixing test above, 10 mL SRW was then introduced to the sonicated or vortexed CaSt mixture. It was then vortexed for 5 seconds to fully incorporate the sonicated CaSt. The mixture was then tested after 15 minutes of interaction to measure the percent decrease of endotoxin. These mixtures were then tested on the Charles River MCS at a dilution of 1:2000 after 15 minutes of interaction.
*The 1 month shelf life sample was only tested at 0.04g CaSt and measured the percent removal after 15 minutes of interaction as well as 30 minutes after interaction.

[2] = assay type: in vivo; details: female rats, observed 4 days
Method: An animal study was conducted with 30 female rats with weights ranging from 250-300g and acclimated for 5 days. All rats were dosed with intraperitoneal injections using 18 gauge needles. The rats were broken into 6 groups. A negative control (NC-1) dosed 5 rats with 5mL of normal saline solution. […] A positive control (PC-1) dosed 5 rats with 2.5 million EU in a 5mL saline solution. A second positive control (PC-2) was conducted dosing 5 rats with 5 million endotoxin units in a 5mL normal saline solution. Two experimental test groups were conducted.
The negative control samples also had no toxicity. Table 21. Results of animal study with CaSt dosing

SMILES: CCCCCCCCCCCCCCCCCC(=O)O [Calcium Stearate]
- Percent Endotoxin Removed ([1]; 0.02 g CaSt, Vortexed, Immediate Mixing, listed as Aged Vortexed CaSt #1): 20%
- Percent Endotoxin Removed ([1]; 0.02 g CaSt, Vortexed, Immediate Mixing, listed as Aged Vortexed CaSt #2): 43%
- EU After ([1]; 0.04 g CaSt, Sonicated, Immediate Mixing with 10 mL SRW, 15 minutes, EU Before 36,100, listed as Sonicated CaSt #1): 5,320 EU
- EU After ([1]; 0.04 g CaSt, Sonicated, Immediate Mixing with 10 mL SRW, 15 minutes, EU Before 36,100, listed as Sonicated CaSt #2): 5,800 EU
- Average Percent Change ([1]; 0.04 g CaSt, Sonicated, Immediate Mixing, 15 minutes): 85%
- Percent Endotoxin Removed ([1]; 0.04 g CaSt, Sonicated, Immediate Mixing, 15 minutes, listed as Sonicated CaSt #1): 85%
- Percent Endotoxin Removed ([1]; 0.04 g CaSt, Sonicated, Immediate Mixing, 15 minutes, listed as Sonicated CaSt #2): 84%
- Average Percent Change ([1]; 0.04 g CaSt, Sonicated, Mixing after 1 Month dwell time): 50%
- EU After ([1]; 0.04 g CaSt, Sonicated, Mixing after 1 Month dwell time, 15 minutes, EU Before 14650, listed as Aged Sonicated CaSt #1): 7440 EU
- EU After ([1]; 0.04 g CaSt, Sonicated, Mixing after 1 Month dwell time, 15 minutes, EU Before 14650, listed as Aged Sonicated CaSt #2): 7240 EU
- Percent Endotoxin Removed ([1]; 0.04 g CaSt, Sonicated, Mixing after 1 Month dwell time, listed as Aged Sonicated CaSt #1): 49.2%
- Percent Endotoxin Removed ([1]; 0.04 g CaSt, Sonicated, Mixing after 1 Month dwell time, listed as Aged Sonicated CaSt #2): 50.6%
- Average Percent Change ([1]; 0.04 g CaSt, Sonicated, Mixing after 5 Days dwell time): 85%
- EU After ([1]; 0.04 g CaSt, Sonicated, Mixing after 5 Days dwell time, 15 minutes, EU Before 37,800, listed as Aged Sonicated CaSt #3): 5,040 EU
- EU After ([1]; 0.04 g CaSt, Sonicated, Mixing after 5 Days dwell time, 15 minutes, EU Before 37,800, listed as Aged Sonicated CaSt #4): 6,560 EU
- Percent Endotoxin Removed ([1]; 0.04 g CaSt, Sonicated, Mixing after 5 Days dwell time, listed as Aged Sonicated CaSt #3): 87%
- Percent Endotoxin Removed ([1]; 0.04 g CaSt, Sonicated, Mixing after 5 Days dwell time, listed as Aged Sonicated CaSt #4): 83%
- Average Percent Change ([1]; 0.04 g CaSt, Sonicated, Mixing after 90 min dwell time): 81%
- EU After ([1]; 0.04 g CaSt, Sonicated, Mixing after 90 min dwell time, 15 minutes, EU Before 36,100, listed as Aged Sonicated CaSt #1): 6168 EU
- EU After ([1]; 0.04 g CaSt, Sonicated, Mixing after 90 min dwell time, 15 minutes, EU Before 36,100, listed as Aged Sonicated CaSt #2): 8,000 EU
- Percent Endotoxin Removed ([1]; 0.04 g CaSt, Sonicated, Mixing after 90 min dwell time, listed as Aged Sonicated CaSt #1): 83%
- Percent Endotoxin Removed ([1]; 0.04 g CaSt, Sonicated, Mixing after 90 min dwell time, listed as Aged Sonicated CaSt #2): 78%
- Average Percent Change ([1]; 0.04 g CaSt, Vortexed, Immediate Mixing): 44%
- EU After ([1]; 0.04 g CaSt, Vortexed, Immediate Mixing, 15 minutes, EU Before 36,100, listed as Aged Vortexed CaSt #1): 19,840 EU
- EU After ([1]; 0.04 g CaSt, Vortexed, Immediate Mixing, 15 minutes, EU Before 36,100, listed as Aged Vortexed CaSt #2): 20480 EU
- Percent Endotoxin Removed ([1]; 0.04 g CaSt, Vortexed, Immediate Mixing, listed as Aged Vortexed CaSt #1): 45%
- Percent Endotoxin Removed ([1]; 0.04 g CaSt, Vortexed, Immediate Mixing, listed as Aged Vortexed CaSt #2): 43%
- Average Percent Change ([1]; 0.04 g CaSt, Vortexed, Mixing after 5 Days dwell time): 75%
- EU After ([1]; 0.04 g CaSt, Vortexed, Mixing after 5 Days dwell time, 15 minutes, EU Before 37,800, listed as Aged Vortexed CaSt #3): 9,080 EU
- EU After ([1]; 0.04 g CaSt, Vortexed, Mixing after 5 Days dwell time, 15 minutes, EU Before 37,800, listed as Aged Vortexed CaSt #4): 9,760 EU
- Percent Endotoxin Removed ([1]; 0.04 g CaSt, Vortexed, Mixing after 5 Days dwell time, listed as Aged Vortexed CaSt #3): 76%
- Percent Endotoxin Removed ([1]; 0.04 g CaSt, Vortexed, Mixing after 5 Days dwell time, listed as Aged Vortexed CaSt #4): 74%
- Average Percent Change ([1]; 0.04 g CaSt, Vortexed, Mixing after 90 min dwell time): 54%
- EU After ([1]; 0.04 g CaSt, Vortexed, Mixing after 90 min dwell time, 15 minutes, EU Before 36,100, listed as Aged Vortexed CaSt #1): 17,120 EU
- EU After ([1]; 0.04 g CaSt, Vortexed, Mixing after 90 min dwell time, 15 minutes, EU Before 36,100, listed as Aged Vortexed CaSt #2): 16,460 EU
- Percent Endotoxin Removed ([1]; 0.04 g CaSt, Vortexed, Mixing after 90 min dwell time, listed as Aged Vortexed CaSt #1): 53%
- Percent Endotoxin Removed ([1]; 0.04 g CaSt, Vortexed, Mixing after 90 min dwell time, listed as Aged Vortexed CaSt #2): 54%
- Results (toxicity) ([2]; NC-2: 0.2 g Calcium Stearate in 5.0 mL normal saline, intraperitoneal, no endotoxin): No Toxicity Observed
- Results (toxicity) ([2]; T-1: 2,500,000 EU + 0.2g Calcium Stearate + normal saline (5.0 mL) dosed IP): No Toxicity Observed
- Results (toxicity) ([2]; T-1: 2,500,000 EU + 0.2g Calcium Stearate + normal saline (5.0 mL) dosed IP, listed as calcium stearate): no toxicity or adverse effects
- Results (toxicity) ([2]; T-2: 5,000,000 EU + 0.2g Calcium Stearate + normal saline (5.0 mL) dosed IP): No Toxicity Observed
- Results (toxicity) ([2]; T-2: 5,000,000 EU + 0.2g Calcium Stearate + normal saline (5.0 mL) dosed IP, listed as calcium stearate): no toxicity or adverse effects
